# Legend:
# [1] = system: muscle RING Finger-1 (Murf-1); test: Murf-1 gene expression in muscle tissue of db/db mice; format: in vivo, db/db diabetic mouse model; conditions: db/db mice muscle tissue RNA, 2.5 mg/kg intraperitoneally, 8 weeks
# Protocol: (§1) It was confirmed whether the antidiabetic peptide relieves diabetes mellitus induced by leptin receptor defects. As an animal model, 5-week-old C57BLKS/J-db/db male mice were provided by Central Lab. Animal Inc., fed a normal diet, and used after an adaptation period of one week. The breeding environment was maintained at 18 to 24° C. and a humidity of 50 to 60%, and the animals were given free access to normal feed and water during both the adaptation period and the experimental period. Mice that completed the adaptation period were divided into a control (intraperitoneal injection) and a peptide administration group. PBS and antidiabetic peptides (Nos. 7 and 8; 2.5 mg/kg) were intraperitoneally administered to the control and peptide administration groups, respectively, for a total of 8 weeks.
# (§2) Various tissue examinations were performed on a db/db diabetic mouse model to confirm the efficacy of relieving diabetic complications. First, in order to confirm muscle loss-related effects, RNA was isolated from muscle tissue and the expression levels of muscle loss-related genes were confirmed. […]
# [2] = system: CCAAT enhancer binding protein α (C/EBPα); test: C/EBPα gene expression in muscle tissue of db/db mice; format: in vivo, db/db diabetic mouse model; conditions: db/db mice muscle tissue RNA, 2.5 mg/kg intraperitoneally, 8 weeks
# Protocol: as §1, §2
# [3] = system: peroxisome proliferator-activated receptor α (PPARα); test: PPARα gene expression in muscle tissue of db/db mice; format: in vivo, db/db diabetic mouse model; conditions: db/db mice muscle tissue RNA, 2.5 mg/kg intraperitoneally, 8 weeks
# Protocol: as §1, §2
# [4] = system: adipocyte protein 2 (AP2); test: AP2 gene expression in muscle tissue of db/db mice; format: in vivo, db/db diabetic mouse model; conditions: db/db mice muscle tissue RNA, 2.5 mg/kg intraperitoneally, 8 weeks
# Protocol: as §1, §2
# [5] = system: obese mouse model; test: Glucose tolerance in high-fat-diet obese mouse model; format: in vivo, C57BL/6N male mice; conditions: obese mice, 2.5 mg/kg
# Protocol: 5-week-old C57BL/6N male mice were obtained from Orient Bio, fed a normal diet, and used after an adaptation period of one week. The breeding environment was maintained at 18 to 24° C. and a humidity of 50 to 60%, and the animals were given free access to feed and water during both the adaptation period and the experimental period. After the one-week adaptation period, the mice were induced to become obese through a high-fat diet to induce impaired glucose tolerance.
# The mice in which obesity was induced were divided into a control and an experimental group. All mice were fasted for 12 hours, and PBS and a peptide (No. 1, 7, or 8; 2.5 mg/kg) were administered to the control and the experimental group, respectively. One hour later, a 20% glucose solution was intraperitoneally injected, and blood collected at each time period was analyzed using a blood glucose analyzer.
# [6] = system: S6 (mTOR marker); test: S6 phosphorylation in L6 skeletal muscle cells (western blotting); format: cell-based; conditions: 100 nM, 1 hour; for phosphorylation of S6 (mTOR marker): FIG. 8
# Protocol: (§3) L6 skeletal muscle cells were cultured in a 6-well plate and then starved with 0.5% FBS. Thereafter, the cells were treated with an antidiabetic peptide at a concentration of 100 nM for 1 hour, proteins were collected, and then western blotting was performed.
# [7] = system: FoxO1; test: FoxO1 phosphorylation and expression in L6 skeletal muscle cells (western blotting); format: cell-based; conditions: 100 nM, 1 hour
# Protocol: as §3
# [8] = system: glucose transporter type 4 (GLUT4); test: GLUT4 translocation to the cell membrane in C2C12 skeletal muscle cells; format: cell-based; conditions: 100 nM, 1 hour, FIG. 3: Nos. 1 to 8 and insulin
# Protocol: Similarly, in order to further verify the function of promoting glucose metabolism by antidiabetic peptide treatment, the degree of expression of a glucose transporter type 4 (GLUT4) glucose receptor, which plays an important role in glucose uptake, in the cell membrane was measured. It is known that GLUT4 moves from the cytoplasm to the cell membrane to promote sugar metabolism, and thus the expression level thereof increases. To confirm this, C2C12 skeletal muscle cells were starved with 0.5% FBS and then treated with the peptide and insulin, which is a positive control, at a concentration of 100 nM for 1 hour. Cells were fixed with 4% paraformaldehyde, incubated with a GLUT4-specific antibody at 37° C. for 30 minutes, reacted with an o-phenylenediamine (OPD) solution, and absorbance was measured and compared with that of the control.
substance,measurement,setting,value
AGSIREAGGAFGKREQAEEERYFR (listed as Homo sapiens) [No. 7],Murf-1 gene expression change,[1],−90.1%
same,C/EBPα gene expression change,[2],−18.6%
same,PPARα gene expression change,[3],+94.1%
same,AP2 gene expression change,[4],−52.5%
same,change in blood sugar over time (GLUAUC) reduced compared to the control,[5]; after baseline correction,31.1%
same,phosphorylation of S6 (mTOR marker),[6],increased
REAGGAFGKR (listed as Homo sapiens) [No. 3],phosphorylation of S6 (mTOR marker),[6],increased
YFR (listed as Homo sapiens) [No. 1],expression level of total FoxO1,[7],decreased
same,phosphorylation of FoxO1,[7]; FIG. 9: Nos. 1 to 8,increased
same,"phosphorylation of S6 protein, increase",[6],188%
AQSREQLAALKK (listed as Homo sapiens) [No. 5],"phosphorylation of S6 protein, increase",[6],494%
EQAEEER (listed as Homo sapiens) [No. 2],"phosphorylation of S6 protein, increase",[6],365%
VDRGAGSIREAGGAFGKREQAEEERYFR (listed as Homo sapiens) [No. 8],Murf-1 gene expression change,[1],−36.0%
same,C/EBPα gene expression change,[2],−45.5%
same,PPARα gene expression change,[3],+12.9%
same,AP2 gene expression change,[4],−54.7%
same,"blood sugar metabolism after glucose injection, baseline corrected, compared to the control","[5]; fasted 12 hours, 20% glucose intraperitoneally one hour later, FIG. 4 left",significantly improving
same,"phosphorylation of S6 protein, increase",[6],414%
EQAEEERYFR (listed as Homo sapiens) [No. 4],"phosphorylation of S6 protein, increase",[6],224%
insulin,GLUT4 translocation compared to the control,[8],significant GLUT4 translocation
YFRAQSREQLAALKKHH (listed as Homo sapiens) [No. 6],phosphorylation of S6 (mTOR marker),[6],increased

# Reference: patent US20240335499A1, “PEPTIDE HAVING ANTIDIABETIC ACTIVITY AND USE THEREOF” (MEDI&GENE INC., priority 2021, published 2024)
